Measurements as given in patent US11590244B2, “Methods for renal function determination” (MediBeacon Inc., priority 2017, dated 2023).
Where two headings read alike, the source gives them in different places.

Assays:
[1] = Stability testing, HPLC evaluation of stored samples; assay type: physicochemical; settings: 25° C. and 60% relative humidity
Method: Samples of MB-102 were prepared and stored at 25° C. and 60% relative humidity for 24 months. HPLC evaluation of each sample was performed at various time points to assess the stability of the samples.

[2] = Clinical pharmacokinetic study of MB-102 given intravenously: plasma and urine collection; assay type: in vivo, human; settings: for half-life: plasma
Method: In a clinical study, 60 human patients were administered MB-102 ((2R,2′R)-2,2′-((3,6-diaminopyrazine-2,5-dicarbonyl)bis(azanediyl))bis(3-hydroxypropanoic acid)) prepared in Example 12) intravenously. Blood and urine were collected in addition to the methods and techniques disclosed herein. Standard pharmacokinetic data was collected and comparison was made between the methods and techniques disclosed herein to Omnipaque® (iohexol), a known contrast agent used for GFR determination.
Shown in FIGS. 3A to 3D are data collected from the 60 human patients tested with MB-102. Plasma pharmacokinetic data was collected and analyzed using methods known in the art and compared to the data measured using the methods and techniques disclosed herein.
FIGS. 3A to 3D illustrate a two compartment pharmacokinetic model for the elimination of MB-102. The model is consistent for patients regardless of their GFR values. FIG. 3A is for patients having normal kidney function having a measured GFR (mGFR) of 120 mL/min. FIG. 3B is for patients having a mGFR of 81 mL/min. FIG. 3C is for patients having a mGFR of 28 mL/min. FIG. 3D is for patients having a mGFR of 25 mL/min. The first compartment in the two compartment model is the vascular to tissue equilibrium while the second compartment illustrates renal excretion only. On average, the time for equilibration is about one hour, and is subject dependent.
As part of the clinical 1 study for MB-102, urine was collected from patients for 12 hours to determine the amount recovered and degree of secondary metabolism. […] For patients having normal, stage 1 and stage 2 renal function, 12 hour collection time was sufficient for greater than 99% recovery of MB-102. In view of the pharmacokinetic data and the plasma half-life determination, less than complete collection is readily understood for patients having more serious renal function impairment.
Shown in FIG. 6 is the plasma concentration half-life of MB-102 for patients having either normal kidney function, stage 1 renal impairment, stage 2 renal impairment, stage 3 renal impairment, or stage 4 renal impairment.

[3] = patients having a mGFR value below 60, 12 hours

SMILES: Nc1nc(C(=O)N[C@H](CO)C(=O)O)c(N)nc1C(=O)N[C@H](CO)C(=O)O [MB-102]
- Purity (HPLC) ([1]; 0 months): >99%
- Purity (HPLC) ([1]; 6 months): >99%
- Purity (HPLC) ([1]; 12 months): 98.9%
- Purity (HPLC) ([1]; 18 months): 98.3%
- Purity (HPLC) ([1]; 24 months): 97.8%
- time for equilibration (vascular to tissue equilibrium) ([2]; human patients, intravenous, on average, subject dependent): about one
- half-life ([2]; human, intravenous, stage 2 and 3 groups (so in the source), read-out: average plasma half-life (converted)): 2.5 h
- half-life ([2]; human, intravenous, stage 3 renal impairment, read-out: plasma half-life (converted)): 4 h
- half-life ([2]; human, intravenous, stage 4 renal impairment, read-out: plasma half-life (converted)): 8 h
- dose excreted ([2]; human, urine, intravenous, patients having normal, stage 1 and stage 2 renal function, 12 hour collection time, read-out: recovery from urine): > 99%
- average plasma half-life ([2]; normal renal function group): two
- degree of secondary metabolism (urine) [2, 3]: unmetabolized
- recovery from urine [2, 3]: a lower percentage was recovered
- recovered unmetabolized from urine ([2]; patients having an eGFR greater than 60, after 12 hours): greater than 99%
